Assay results from patent US20250188040A1, “PHARMACEUTICAL COMPOSITIONS COMPRISING WRN HELICASE INHIBITORS” (Vividion Therapeutics, Inc., priority 2022, published 2025).
Read-outs that look alike come from different tables or passages of the source.

What was measured:
[1] = biological target: T1, WRN C727 (Homo sapiens, UniProt Q14191); assay: Target engagement, in vitro (lysate), OCI-AML2; assay type: binding; settings: read-out: OCI-AML2 WRN C727 TE50 in vitro (lysate)
T1 construct: endogenous in cells; host or cells: OCI-AML2
Protocol: Cells or cell lysates were treated with a dose response of compound followed by probe treatment, which labels solvent exposed cysteines. Proteins were enzymatically digested with trypsin and probe-labelled peptides were enriched with streptavidin. Isolated peptides were then separated using reversed-phase liquid chromatography on a C18 column (Dionex Ultimated 3000 nano-LC, Thermo). Peptides were analyzed by parallel reaction monitoring mass spectrometry (Exploris 120, Thermo).
Target engagement (%) is calculated relative to DMSO treated control samples.

[2] = biological target: hWRN(519-1227)_C-H3CV-GFP-10His (Homo sapiens, UniProt Q14191); assay: Helicase Assay for WRN Inhibition (ATP-dependent, fluorescence based)
[3] = WRN Helicase IC50, 30 min preincubation with ATP, 30 min reaction

hWRN(519-1227)_C-H3CV-GFP-10His, sequence (Q14191 519-1227): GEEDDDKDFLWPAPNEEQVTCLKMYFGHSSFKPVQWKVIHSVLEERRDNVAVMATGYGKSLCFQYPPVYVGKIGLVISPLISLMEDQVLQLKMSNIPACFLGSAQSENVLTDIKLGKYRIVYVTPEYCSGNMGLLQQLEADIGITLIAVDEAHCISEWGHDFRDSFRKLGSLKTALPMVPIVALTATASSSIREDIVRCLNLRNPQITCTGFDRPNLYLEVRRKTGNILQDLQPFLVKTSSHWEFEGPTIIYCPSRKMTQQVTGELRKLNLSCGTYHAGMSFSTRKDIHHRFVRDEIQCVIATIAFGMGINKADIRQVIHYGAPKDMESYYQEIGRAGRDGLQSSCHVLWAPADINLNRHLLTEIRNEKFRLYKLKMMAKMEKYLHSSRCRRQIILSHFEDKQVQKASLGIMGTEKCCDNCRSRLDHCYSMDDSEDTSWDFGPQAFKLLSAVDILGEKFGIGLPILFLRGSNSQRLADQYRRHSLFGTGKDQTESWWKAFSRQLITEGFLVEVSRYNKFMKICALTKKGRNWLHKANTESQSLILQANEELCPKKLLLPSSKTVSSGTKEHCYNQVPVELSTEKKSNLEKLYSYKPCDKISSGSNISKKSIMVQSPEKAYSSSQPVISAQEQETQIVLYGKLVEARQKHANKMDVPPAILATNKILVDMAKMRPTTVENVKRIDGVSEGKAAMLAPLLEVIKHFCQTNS
T1 sequence (Q14191 whole entry): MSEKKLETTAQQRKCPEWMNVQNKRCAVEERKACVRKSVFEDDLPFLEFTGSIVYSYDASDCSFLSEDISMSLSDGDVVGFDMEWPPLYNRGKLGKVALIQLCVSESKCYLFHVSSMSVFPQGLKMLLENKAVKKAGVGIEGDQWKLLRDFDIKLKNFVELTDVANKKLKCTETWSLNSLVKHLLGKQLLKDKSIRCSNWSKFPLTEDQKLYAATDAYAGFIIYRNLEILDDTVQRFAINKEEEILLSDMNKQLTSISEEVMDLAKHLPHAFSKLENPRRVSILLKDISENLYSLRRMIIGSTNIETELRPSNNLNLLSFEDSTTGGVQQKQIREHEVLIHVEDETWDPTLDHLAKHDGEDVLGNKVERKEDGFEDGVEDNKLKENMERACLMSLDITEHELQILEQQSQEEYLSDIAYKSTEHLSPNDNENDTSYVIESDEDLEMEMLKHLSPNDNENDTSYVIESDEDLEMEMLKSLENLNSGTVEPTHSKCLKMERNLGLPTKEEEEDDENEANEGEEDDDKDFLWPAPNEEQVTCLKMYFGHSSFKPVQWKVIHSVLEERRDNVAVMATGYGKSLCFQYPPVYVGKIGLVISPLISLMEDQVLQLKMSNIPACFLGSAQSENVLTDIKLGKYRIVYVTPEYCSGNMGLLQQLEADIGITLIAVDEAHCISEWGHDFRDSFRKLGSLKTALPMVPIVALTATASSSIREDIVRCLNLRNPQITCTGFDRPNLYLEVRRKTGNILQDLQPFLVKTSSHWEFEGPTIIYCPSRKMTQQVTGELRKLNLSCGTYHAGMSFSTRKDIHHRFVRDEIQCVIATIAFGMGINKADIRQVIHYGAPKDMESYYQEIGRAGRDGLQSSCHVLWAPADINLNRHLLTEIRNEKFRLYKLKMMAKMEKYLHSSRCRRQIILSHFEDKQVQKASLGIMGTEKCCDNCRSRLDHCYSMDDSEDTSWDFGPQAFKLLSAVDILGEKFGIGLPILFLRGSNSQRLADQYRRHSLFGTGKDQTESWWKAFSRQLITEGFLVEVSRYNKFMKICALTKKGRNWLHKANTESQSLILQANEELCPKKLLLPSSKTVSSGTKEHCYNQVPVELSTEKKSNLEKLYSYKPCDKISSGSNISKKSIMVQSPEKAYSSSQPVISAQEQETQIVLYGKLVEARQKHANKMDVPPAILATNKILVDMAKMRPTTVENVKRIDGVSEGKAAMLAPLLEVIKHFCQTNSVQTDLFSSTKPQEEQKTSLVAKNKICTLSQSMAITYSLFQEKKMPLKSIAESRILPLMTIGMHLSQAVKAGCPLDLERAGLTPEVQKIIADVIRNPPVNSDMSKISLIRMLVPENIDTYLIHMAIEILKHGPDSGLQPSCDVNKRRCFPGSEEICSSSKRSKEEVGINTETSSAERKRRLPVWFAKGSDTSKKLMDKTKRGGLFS

SMILES	IC50 [1] [µM]	IC50 [2, 3] [µM]	IC50 [2] [µM]
CC(C)(C)c1ncc(C(=O)NC2(C=CS(C)(=O)=O)CC2)c(Oc2ccccc2)n1 (racemic) [Example 59, 2-(tert-butyl)-N-(1-(2-(methylsulfonyl)vinyl)cyclopropyl)-4-phenoxypyrimidine-5-carboxamide]	> 100	54	
C[C@@H](/C=C/S(C)(=O)=O)NC(=O)c1cnc(C2CCCC2)nc1O[C@H]1CCCC[C@H]1O (single isomer, unassigned) [Example 129]	> 100	85	
C[C@@H](/C=C/S(C)(=O)=O)NC(=O)c1cnc(C2CCCC2)nc1O[C@@H]1CCCC[C@@H]1O (single isomer, unassigned) [Example 130]	> 100	50	
C[C@@H](/C=C/S(C)(=O)=O)NC(=O)c1cnc(C2CCCC2)nc1O[C@H]1CCCC[C@@H]1O (single isomer, unassigned) [Example 131]	> 100	24	
C[C@@H](/C=C/S(C)(=O)=O)NC(=O)c1cnc(C2CCCC2)nc1O[C@@H]1CCCC[C@H]1O (single isomer, unassigned) [Example 132]	> 100	30	
CC1CC[C@@H](C)N1c1ncc(C(=O)N[C@@H](C)/C=C/S(C)(=O)=O)c(Oc2ccccc2)n1 (stereo in doubt) [Example 172, 2-((2R,5S)-2,5-dimethylpyrrolidin-1-yl)-N—((S,E)-4-(methylsulfonyl)but-3-en-2-yl)-4-phenoxypyrimidine-5-carboxamide]	31.2	13	
O=C(NC1C=CS(=O)(=O)C1)c1cnc(C2CC2)nc1Oc1ccccc1 (stereo not drawn) [Example 27, 2-cyclopropyl-N-(1,1-dioxido-2,3-dihydrothiophen-3-yl)-4-phenoxypyrimidine-5-carboxamide]			34
CO[C@H](C)[C@@H](/C=C/S(C)(=O)=O)NC(=O)c1cnc(C2CC2)nc1Oc1ccccc1 [Example 32, 2-cyclopropyl-N-((3R,4R,E)-4-methoxy-1-(methylsulfonyl)pent-1-en-3-yl)-4-phenoxypyrimidine-5-carboxamide]	> 100	35	
CS(=O)(=O)C1=CCN(C(=O)c2cnc(C3CC3)nc2Oc2ccccc2)C1 [Example 34, (2-cyclopropyl-4-phenoxypyrimidin-5-yl)(3-(methylsulfonyl)-2,5-dihydro-1H-pyrrol-1-yl)methanone]	> 100		26
C[C@@H](/C=C/S(C)(=O)=O)NC(=O)c1cnc(C2Cc3ccccc32)nc1Oc1ccccc1 (stereo partly drawn) [Example 52, 2-(bicyclo[4.2.0]octa-1,3,5-trien-7-yl)-N—((S,E)-4-(methylsulfonyl)but-3-en-2-yl)-4-phenoxypyrimidine-5-carboxamide]	> 100	66	
C[C@@H](/C=C/S(C)(=O)=O)NC(=O)c1cnc(C2CCOC2)nc1Oc1ccccc1 (stereo partly drawn) [Example 79, N—((S,E)-4-(methylsulfonyl)but-3-en-2-yl)-4-phenoxy-2-(tetrahydrofuran-3-yl)pyrimidine-5-carboxamide]	> 100	18	
Cc1ccc(Oc2nc(C3CCCC3)ncc2C(=O)NC/C=C/S(C)(=O)=O)cc1 [Example 104, (E)-2-cyclopentyl-N-(3-(methylsulfonyl)allyl)-4-(p-tolyloxy)pyrimidine-5-carboxamide]	21.8	19	
Cc1ccccc1Oc1nc(C2CCCC2)ncc1C(=O)N[C@@H](C)/C=C/S(C)(=O)=O [Example 106, (S,E)-2-cyclopentyl-N-(4-(methylsulfonyl)but-3-en-2-yl)-4-(o-tolyloxy)pyrimidine-5-carboxamide]	> 100	24	
CCc1ccc(Oc2nc(C3CCCC3)ncc2C(=O)N[C@@H](C)/C=C/S(C)(=O)=O)cc1 [Example 107, (S,E)-2-cyclopentyl-4-(4-ethylphenoxy)-N-(4-(methylsulfonyl)but-3-en-2-yl)pyrimidine-5-carboxamide]	> 100	82	
Cc1ccc(Oc2nc(C3CCCC3)ncc2C(=O)N[C@@H](C)/C=C/S(C)(=O)=O)cc1C [Example 109, (S,E)-2-cyclopentyl-4-(3,4-dimethylphenoxy)-N-(4-(methylsulfonyl)but-3-en-2-yl)pyrimidine-5-carboxamide]	> 100	183	
C[C@@H](/C=C/S(C)(=O)=O)NC(=O)c1cnc(C2CCCC2)nc1Oc1ccccn1 [Example 126, (S,E)-2-cyclopentyl-N-(4-(methylsulfonyl)but-3-en-2-yl)-4-(pyridin-2-yloxy)pyrimidine-5-carboxamide]	> 100	44.4	
C[C@@H](/C=C/S(C)(=O)=O)NC(=O)c1cnc(C2CC2)nc1OC1CCC(F)(F)C1 (stereo partly drawn) [Example 146, 2-cyclopropyl-4-((3,3-difluorocyclopentyl)oxy)-N—((S,E)-4-(methylsulfonyl)but-3-en-2-yl)pyrimidine-5-carboxamide]		53	
COC1CN(c2ncc(C(=O)N[C@@H](C)/C=C/S(C)(=O)=O)c(Oc3ccccc3)n2)C1 [Example 169, (S,E)-2-(3-methoxyazetidin-1-yl)-N-(4-(methylsulfonyl)but-3-en-2-yl)-4-phenoxypyrimidine-5-carboxamide]		110	
CS(=O)(=O)/C=C/CNC(=O)c1ccc(C2CCCC2)cc1OC1CCCC1 [Example 198, (E)-4-cyclopentyl-2-(cyclopentyloxy)-N-(3-(methylsulfonyl)allyl)benzamide]		27	
C[C@@H](/C=C/S(C)(=O)=O)NC(=O)c1ccc(C2CCCC2)c2cccnc12 [Example 203, (S,E)-5-cyclopentyl-N-(4-(methylsulfonyl)but-3-en-2-yl)quinoline-8-carboxamide]			77
Cc1c(C2CC2)ncc(C(=O)N[C@@H](C)/C=C/S(C)(=O)=O)c1Oc1ccccc1 [Example 204, (S,E)-6-cyclopropyl-5-methyl-N-(4-(methylsulfonyl)but-3-en-2-yl)-4-phenoxynicotinamide]		96	
C[C@@H](/C=C/S(C)(=O)=O)NC(=O)c1cc2c(cc1Oc1ccccc1)CC(C)(C)C2=O [Example 248, (S,E)-2,2-dimethyl-N-(4-(methylsulfonyl)but-3-en-2-yl)-3-oxo-6-phenoxy-2,3-dihydro-1H-indene-5-carboxamide]			63
CC1(C)Cc2cc(Oc3ccccc3)c(C(=O)N3CC(=CS(C)(=O)=O)C3)cc2C1=O [Example 249, 2,2-dimethyl-6-(3-((methylsulfonyl)methylene)azetidine-1-carbonyl)-5-phenoxy-2,3-dihydro-1H-inden-1-one]			39
Cn1cnc2cc(C(=O)N[C@H](/C=C/S(C)(=O)=O)C3CC3)c(Oc3ccccc3)nc21 [Example 251, (S,E)-N-(1-cyclopropyl-3-(methylsulfonyl)allyl)-3-methyl-5-phenoxy-3H-imidazo[4,5-b]pyridine-6-carboxamide]		103	
N#C/C=C/CNC(=O)c1cnc(C2CC2)nc1Oc1ccccc1 [Example 266, (E)-N-(3-cyanoallyl)-2-cyclopropyl-4-phenoxypyrimidine-5-carboxamide]		116	
N#C/C=C\CNC(=O)c1cnc(C2CC2)nc1Oc1ccccc1 [Example 267, (Z)—N-(3-cyanoallyl)-2-cyclopropyl-4-phenoxypyrimidine-5-carboxamide]		29	
CS(=O)(=O)/C=C/CNC(=O)c1ccc(C2CCCC2)cc1OC1CC1 [Example 283, (E)-4-cyclopentyl-2-cyclopropoxy-N-(3-(methylsulfonyl)allyl)benzamide]		64	
